Measurements taken from paper PMC7136958, “Targeting the pregnane X receptor using microbial metabolite mimicry” (EMBO Molecular Medicine, 2020).
Values joined by “and” are separate entries in the source; they are usually repeats but may differ in a detail not shown here. Equal values may be shown once.

Assays:
[1] = test system: TLR4, CYP3A4, MDR1 mRNA in Caco-2 cells; test: RT-qPCR of TLR4, CYP3A4, MDR1 mRNA in PXR-transfected Caco-2 cells; assay type: cell-based, human; conditions: 10 μM; for CYP3A4 mRNA expression / MDR1 mRNA expression (Fold Change) / TLR4 mRNA expression: 24 h; for CYP3A4 Mean Fold expression / MDR1 Mean Fold expression / hTLR4 Mean Fold expression: DMSO = 1
Procedure: RT–qPCR was performed using Thermo Fisher PowerUp SYBR Green Master Mix (# A25742) and Thermo Fisher qPCR 7900HT. Each sample was repeated in quadruplicate and normalized to internal control, GAPDH. The entire experiment was repeated at least two separate times. The primer sequences are noted in Table 2.

[2] = test system: IL-8 mRNA in Caco-2 cells; test: IL-8 mRNA in Caco-2 monolayers exposed to cytokine cocktail; assay type: cell-based, human; parameters: key to IL8 mRNA: relative IL-8 mRNA level, normalized to GAPDH; conditions: for IL8 mRNA: Caco-2 cells, triplicate
Procedure: Caco‐2 cell (ATCC, Manassas, VA) passages 25–35 were maintained and expanded in culture flasks in Dulbecco's modified Eagle's medium (DMEM) with 10% FBS and 1× antibiotic–antimycotic. The cells were kept in a humidified 37°C incubator with 5% CO2. Media were changed every 2–3 days, and cells were passaged 1–2 times a week. For all experiments, Caco‐2 cells (5 × 10^4 cells/ml) were seeded into 12‐well Transwell inserts or coverslips and cultured for 3 weeks. HIOs were generated from iPSCs as described previously (Spence et al, 2011), with some modifications. The iPSC cell line IISH1i‐BM1 (WiCell, Madison, WI) was cultured on Matrigel plates to 80% confluence in mTeSR™ 1 medium (Stem Cell Technologies, Seattle, WA) and differentiated to endoderm using Definitive Endoderm Kit (Stem Cell Technologies., Seattle, WA) for 4 days with daily media changes. Endoderm was then differentiated to hindgut for 5 days with the addition of FGF‐4 (500 ng/ml; Peprotech, Rocky Hill, NJ) and Chir99021 (3 μM; Cayman, Ann Arbor, MI) in RPMI media supplemented with 2% FBS. Floating hindgut spheroids were collected on days 3–5 of hindgut differentiation and suspended in Matrigel beads for HIO differentiation. HIOs were maintained in WENRAS media (Fujii et al, 2015), which maintains proliferation in the culture. Stock HIOs were passaged weekly by removing Matrigel with Cell Recovery Solution (Corning, NY) and mechanically breaking up organoids with pipetting. HIOs were seeded into new Matrigel beads at a 1:3 split, using WENRAS with added Rock Inhibitor Y‐27632 (10 μM) and Chir99021 (3 μM; Cayman., Ann Arbor, MI) for the first 2 days of culture.
Relative mRNA levels of IL‐8 and IL‐6 were determined using quantitative real‐time PCR, with normalization to GAPDH. RNA was isolated using an RNeasy Mini Kit (Qiagen) as per the manufacturer's instructions. On column DNase (Qiagen) was used to remove any contaminating DNA. Next, cDNA was formed using iScript cDNA Synthesis Kit (Bio‐Rad) and 100 ng RNA. qRT–PCR was performed with SsoAdvanced Universal SYBR Green Kit (Bio‐Rad). The following primers were used: IL‐8 Forward: […]; IL‐8 Reverse: […]; IL‐6 Forward: […]; IL‐6 Reverse: […]; GAPDH Forward: […]; GAPDH Reverse: […]. For immunofluorescent staining of NF‐ĸB translocation to the cell nucleus, HIOs and Caco‐2 cell monolayers were fixed in 4% formaldehyde (in 1 × PBS) overnight at 4°C. The formaldehyde was removed by washing with 1 × PBS, and an antigen retrieval step was performed by incubating in 10 mM sodium citrate buffer in a vegetable steamer for 20 min. The samples were then blocked with normal donkey serum (10% in PBS with 0.3% Triton X‐100) for 1 h. Samples were incubated overnight with primary antibodies: rabbit anti‐NF‐κB p65 (D14E12 # 8242, 1:400 dilution, Cell Signaling Technology, Danvers MA), then immersed in Alexa Fluor® 555 donkey anti‐rabbit secondary antibody (A‐31572, Life Technologies) at a 1:500 dilution. Nuclei were stained with Hoechst 33342 (Life Technologies). The samples were then imaged using a Zeiss LSM880 Confocal/Multiphoton Upright Microscope, with 3‐D image rendering using Volocity. For controls, normal rabbit IgG (#2729S, Life Technologies) was used.

FXR = molecular target: T1, FXR (Homo sapiens, UniProt Q96RI1); test: hFXR TR-FRET (LanthaScreen FXR Coactivator Assay); assay type: biochemical; conditions: 1 nM to 25 µM
T1 construct: purchased Invitrogen PV4833
T1 sequence (Q96RI1 211-486 limits assumed): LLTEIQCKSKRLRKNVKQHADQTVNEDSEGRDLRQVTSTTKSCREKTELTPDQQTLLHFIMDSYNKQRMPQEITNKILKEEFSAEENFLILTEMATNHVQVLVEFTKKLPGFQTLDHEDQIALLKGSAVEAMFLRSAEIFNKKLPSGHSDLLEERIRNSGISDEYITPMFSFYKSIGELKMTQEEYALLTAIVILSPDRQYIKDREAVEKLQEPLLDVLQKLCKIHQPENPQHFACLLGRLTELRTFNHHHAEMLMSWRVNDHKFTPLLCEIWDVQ
Procedure: volume of 20 µl in 384-well black plates, with concentrations of tested compounds in the range from 1
nm, on Infinite F200 microplate reader (Tecan Group Ltd, Switzerland).
All experiments were done in tetraplicates and as two independent experiments. Final EC50 values were obtained by processing the data with GraphPad Prism 6 using standard curve interpolation (sigmoidal, 4PL, variable slope).

[3] = test system: mutant PXR.1 (C285I/C301A); test: PXR luciferase reporter assay in HEK293T cells, mutant PXR.1; assay type: cell-based, human; conditions: 10 μM, replicate wells
Procedure: After 24‐h transfection using Lipofectamine® LTX ([…] of plasmid), cells were exposed to FKK5 for 24 h. […] The data are expressed as mean ± SD RLU (relative light units from luciferase assay) normalized to β‐Gal activity in the same well. Differences were tested using 2‐way ANOVA with Tukey's multiple comparison test, and P < 0.05 was considered significant (*).

[4] = molecular target: T2, Mouse pregnane X receptor (mPXR) (Mus musculus, UniProt O54915); test: mPXR reporter (MRP2) activity in HEK293T cells; assay type: cell-based
T2 construct: expressed in transfected cells; host or cells: HEK293T
T2 sequence (O54915 whole entry): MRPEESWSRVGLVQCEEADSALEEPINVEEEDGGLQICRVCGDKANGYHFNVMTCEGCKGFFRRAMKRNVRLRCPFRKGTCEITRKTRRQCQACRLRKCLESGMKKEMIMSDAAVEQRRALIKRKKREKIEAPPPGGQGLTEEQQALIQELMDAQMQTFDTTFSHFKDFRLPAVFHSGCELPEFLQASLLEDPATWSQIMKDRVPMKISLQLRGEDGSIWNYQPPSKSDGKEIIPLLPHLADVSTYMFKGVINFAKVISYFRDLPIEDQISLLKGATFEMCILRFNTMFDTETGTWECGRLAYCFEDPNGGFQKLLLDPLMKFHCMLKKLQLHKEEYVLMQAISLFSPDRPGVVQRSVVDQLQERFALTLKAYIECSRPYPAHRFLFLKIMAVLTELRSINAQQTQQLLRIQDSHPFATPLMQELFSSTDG
Procedure: Reverse transfection assays were performed in Caco‐2 cells as previously published with the following modifications (Kublbeck et al, 2015). 3.0 × 10^4 cells per well were transfected using pSG5‐PXR plasmid (300 ng/well), β‐Gal expression plasmid (600 ng/well), and CYP3A4‐luciferase reporter (500 ng/well) (Huang et al, 2007). After 24‐h transfection using Lipofectamine® LTX ([…] of plasmid), cells were exposed to FKK5 for 24 h. Cell lysates were prepared for β‐Gal and luciferase assays as previously published (Huang et al, 2007). The data are expressed as mean ± SD RLU (relative light units from luciferase assay) normalized to β‐Gal activity in the same well. Differences were tested using 2‐way ANOVA with Tukey's multiple comparison test, and P < 0.05 was considered significant (*). Standard transient transfection assays (PXR, CAR) in HEK293T cells were performed as previously published (Huang et al, 2007).

[5] = compound 25µm, no cytokines, 2 hr
[6] = cytokines + compound 10µm, 2 hr

In the case of O=C(c1ccncc1)c1cc2ccccc2n1S(=O)(=O)c1ccccc1 [FKK5, (1-(phenylsulfonyl)-1H-indol-2-yl)(pyridin-4-yl)methanone], the “CYP3A4 mRNA expression” value [1] is reported as 3.7 fold, the “MDR1 mRNA expression (Fold Change)” value [1] is reported as 5.12 fold and the “TLR4 mRNA expression” value [1] is reported as 0.39 fold. For the same molecule, the “CYP3A4 Mean Fold expression” value [1] was 3.7, the “MDR1 Mean Fold expression” value [1] was 5.12 and the “hTLR4 Mean Fold expression” value [1] was 0.39. The “IL8 mRNA” value [2, 5] was 11.5603 and 13.1808 and 10.1297, the “IL8 mRNA” value [2, 6] was 168.69 and 99.441 and 183.41 and the “IL8 mRNA” value ([2]; cytokines + compound 25µm, 2 hr) was 36.3596 and 45.4346 and 54.4045. For the same molecule, the “IL8 mRNA” value ([2]; cytokines + compound 25µm, 12 hr) was 434.784 and 305.562 and 246.223 and the “FXR ligand agonist activity” value (FXR) was “did not observe any significant ligand agonist activity”.
With C#CCC(O)(c1ccncc1)c1cc2ccccc2n1S(=O)(=O)c1ccccc1 (centres unmarked) [FKK6] the “PXR reporter activity, RLU/B-Gal” value [3] was “unable to activate mutant PXR and 17076.9 RLU/B-Gal and 15814.1 RLU/B-Gal and 17887 RLU/B-Gal and 19102.1 RLU/B-Gal”, the “CYP3A4 mRNA expression” value [1] was 3.29 fold and the “MDR1 mRNA expression (Fold Change)” value [1] was 6.45 fold. The “TLR4 mRNA expression” value [1] was 0.49 fold, the “CYP3A4 Mean Fold expression” value [1] was 3.29 and the “MDR1 Mean Fold expression” value [1] was 6.45. For the same molecule, the “hTLR4 Mean Fold expression” value [1] was 0.49, the “cytokine-induced IL-8 mRNA” value ([2]; 25 μM) was “significantly reduced” and the “IL8 mRNA” value ([2]; compound 10µm, no cytokines, 2 hr) was 2.554 and 1.974 and 1.5894. For the same molecule, the “IL8 mRNA” value ([2]; compound 10µm, no cytokines, 12 hr) was 7.6 and 8.533 and 8.223, the “IL8 mRNA” value [2, 5] was 55.8723 and 30.5592 and 31.4544 and the “IL8 mRNA” value [2, 6] was 40.0864 and 49.4401 and 49.4954. The “IL8 mRNA” value ([2]; cytokines + compound 10µm, 12 hr) was 83.1628 and 71.3481 and 97.9287, the “mouse PXR activation” value [4] was “did not significantly activate” and the “FXR ligand agonist activity” value (FXR) was “did not observe any significant ligand agonist activity”.
